Experiments:
[1] = molecular target: T1, PKC-ε (Homo sapiens, UniProt Q02156); test: Activation of purified PKC isozymes; assay type: biochemical; details: purified PKC isozymes (9 ng), preincubated 5 minutes at room temperature
T1 sequence (Q02156 1-737): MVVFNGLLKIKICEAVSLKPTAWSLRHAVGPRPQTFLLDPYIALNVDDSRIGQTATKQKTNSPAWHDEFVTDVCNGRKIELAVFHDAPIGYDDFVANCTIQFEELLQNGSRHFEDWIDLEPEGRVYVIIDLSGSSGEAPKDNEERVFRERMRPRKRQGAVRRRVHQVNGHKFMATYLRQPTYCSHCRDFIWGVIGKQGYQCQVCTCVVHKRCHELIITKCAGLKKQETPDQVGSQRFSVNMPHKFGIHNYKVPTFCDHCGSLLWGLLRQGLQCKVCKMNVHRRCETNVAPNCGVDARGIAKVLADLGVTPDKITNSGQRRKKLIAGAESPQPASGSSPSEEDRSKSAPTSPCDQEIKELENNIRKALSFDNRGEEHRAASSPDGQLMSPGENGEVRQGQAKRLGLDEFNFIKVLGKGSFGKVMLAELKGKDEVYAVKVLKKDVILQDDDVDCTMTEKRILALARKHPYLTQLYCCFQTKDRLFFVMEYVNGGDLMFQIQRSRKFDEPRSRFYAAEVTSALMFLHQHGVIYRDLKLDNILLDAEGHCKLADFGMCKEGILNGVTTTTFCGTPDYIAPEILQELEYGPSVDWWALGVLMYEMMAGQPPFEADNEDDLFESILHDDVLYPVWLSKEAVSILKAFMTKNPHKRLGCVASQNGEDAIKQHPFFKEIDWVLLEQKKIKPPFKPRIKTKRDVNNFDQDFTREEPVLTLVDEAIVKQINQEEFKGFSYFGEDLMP
Method: Protocol: Purified PKC-α, βII, γ, δ, or ε (9 ng) was preincubated for 5 minutes at room temperature with the following PKC activators: (A) DHA-CP6, (B) EPA-CP5, (C) AA-CP4, (D) DCP-LA, (E) “other cyclopropaneated and epoxidized fatty acids, alcohols, and methyl esters.” followed by measurement of PKC activity as described under Experimental Procedures. Results are shown below in FIG. 6.

[2] = test system: TA 100 cells & TA 1535 cells / TA 98 cells; test: AMES testing, overall result (mutagenic potential); assay type: cell-based
Text: (§1) The AMES test is a rapid screening of the mutagenic potential of chemical compounds. […] Between 50% and 70% of all known carcinogens test positive in the AMES test.

[3] = test system: ECE; test: ECE activity in cultured neurons (fluorometric); assay type: cell-based; details: 1 μM, compared to ethanol alone
Method: (§2) Aβ can be degraded in vivo by a number of enzymes, including insulin degrading enzyme (insulysin), neprilysin, and ECE (FIG. 12). Because PKC-ε overexpression has been reported to activate ECE (Choi et al., Proc. Natl. Acad. Sci. USA. 2006; 103: 8215-20), the effect of PKC activators on ECE was analyzed. Candidate PKC activators were added to either SH-SY5Y cells (Bryo—0.27 nM, DCP-LA—1 μM, and DHA-CP6 1 μM) or cultured neurons (DHA-CP6—1 μM, EPA-CP5— 1 μM, and AA-CP4— 1 μM), and grown on either 12- or 24-well plates. After various time periods, the cells were collected and ECE activity was measured fluorometrically. Results are shown below in FIG. 13. *, p<0.05; **, p<0.001.

[4] = test system: ECE; test: ECE activity in SH-SY5Y cells (fluorometric); assay type: cell-based; details: 1 μM, compared to ethanol alone
Method: as §2
PKCε overexpression has been reported to activate endothelin converting enzyme (ECE). The effect of PKC activators on ECE was measured here with Bryostatin, DCP-LA, and DHA-CP6. […] Protocol: Bryostatin (0.27 nM), DCP-LA (1 μM), DHACP6 (1 μM), EPA-CP5 (1 μM), AA-CP4 (1 μM), or ethanol alone were added to SH-SYSY cells growing on 12- or 24-well plates. After various periods of time, the cells were collected and ECE activity was measured fluorometrically as showing in FIG. 34 below (* p<0.05, ** p<0.001).

[5] = test system: healthy brown Norway rats; test: Learning, memory and mushroom spine synapses in healthy rats, water maze training; assay type: in vivo; details: PKCα inhibitor given with bryostatin and water maze training
Text: Protocol: Non-disease, healthy brown Norway rats (at 4-5 months old) were used in this study. […] (Nv=naîve controls; Sw=swim controls; Mz=water maze treatment; and Mz/Br=water maze treatment plus bryostatin treatment).

[6] = test system: sAPP-α; test: sAPP-α secretion in an Alzheimer's disease cell line; assay type: cell-based, human; details: 100 nM pretreatment, bryostatin 0.1 nM
Method: Protocol: An Alzheimer's disease cell line was incubated with bryostatin (0.1 nM), Benzolactam (0.1 nM or 1.0 μM), DMSO, pre-treated with staurosporin (100 nM) plus bryostatin (0.1 nM) for three hours. […] The graph units are relative to the vehicle, DMSO, alone (1).

[7] = Internal toxicity study: Clinical Chemistry Panel & Hematology Panel; assay type: in vivo; details: in vivo
Method: Internal tests measuring various biological markers were performed 24 hours after administering a PKC activator (bryostatin, cyclopropanated arachidonic acid, DCPLA, and DHACP6) at 10× the therapeutic dose. The results are shown below in Tables 5-7.

[8] = test system: TA 1535 Cells; test: AMES test, TA1535 cells; assay type: cell-based; details: plate count
Text: as §1

CCC1CC1CC1CC1CC1CC1CC1CC1CC1CC1CC1CC1CCC(=O)OC (centres unmarked) [DHA-CP6-methyl ester]
PKC-ε specificity versus PKC-α and PKC-δ [1]: PKC-ε specificity ±15% PKC-α and PKC-δ

CCC1CC1CC1CC1CC1CC1CC1CC1CC1CC1CC1CC1CCC(=O)O (centres unmarked) [DHA-CP6]
AMES testing result [2]: not mutagenic
Result (Mutagenic Potential) [2]: Result: Not mutagenic, p > 0.05
ECE activity [3]: increase in ECE activity
ECE activity [4]: sustained increase in ECE activity

CCC1CC1CC1CC1CC1CC1CC1CC1CC1CC1CCCC(=O)O (centres unmarked) [EPA-CP5]
ECE activity [3]: increase in ECE activity

Cn1cc(C2=C(c3cn(CCCSC(=N)N)c4ccccc34)C(=O)NC2=O)c2ccccc21 [Ro 31-8220]
effect on bryostatin-promoted induction of mushroom spine synapses [5]: inhibited

CN[C@@H]1C[C@H]2O[C@@](C)([C@@H]1OC)n1c3ccccc3c3c4c(c5c6ccccc6n2c5c31)C(=O)NC4 [staurosporin]
effect of pretreatment on bryostatin-enhanced sAPP-α secretion [6]: completely abolished the effect of bryostatin

cyclopropanated arachidonic acid
AMES testing result [2]: not mutagenic
Result (Mutagenic Potential) [2]: Result: Not mutagenic, p > 0.05
ALB (Albumin) [7]: 97.0 ± 2.6
ALP (Alkaline phosphatase) [7]: 93.8 ± 6.6
ALT (Alanine aminotransferase) [7]: 92.7 ± 5.4
AST (Aspartate aminotransferase) [7]: 107.0 ± 10.3
BA (Basophils) [7]: 400.0 ± 200.0
BUN (Blood urea nitrogen) [7]: 92.0 ± 6.7
CA (Calcium) [7]: 101.0 ± 3.0
CO2-LC (Bicarbonate) [7]: 100.0 ± 5.4
CREAT (Creatinine) [7]: 92.9 ± 5.2
EO (Eosinophils) [7]: 500.0 ± 250.0
GLU (Glucose) [7]: 84.8 ± 2.4
HCT (Hematocrit) [7]: 93.3 ± 2.3
Hb (Hemoglobin) [7]: 91.7 ± 6.0
K (Potassium) [7]: 82.9 ± 3.6
LY (Lymphocytes) [7]: 124.1 ± 34.4
MCH (Mean corpuscular hemoglobin) [7]: 103.0 ± 10.7
MCV (Mean corpuscular volume) [7]: 105.0 ± 2.0
MO (Monocytes) [7]: 66.6 ± 33.3
MPV (Mean platelet volume) [7]: 82.7 ± 3.7
NA (Sodium) [7]: 99.3 ± 0.6
NE (Neutrophils) [7]: 148.3 ± 51.7
PLT (Platelet count) [7]: 164.5 ± 3.7
RBC (Red Blood Cells) [7]: 89.2 ± 3.0
TBILI (Total bilirubin) [7]: 78.2 ± 6.5
TPROT (Total protein) [7]: 91.3 ± 1.4
WBC (White blood count) [7]: 136.0 ± 42.6
Negative ([8]; 0.05 mM, TA 1535 Cells): 93
Positive ([8]; 0.05 mM, TA 1535 Cells): 3
Negative ([8]; 0.125 mM, TA1535 Cells): 95
Positive ([8]; 0.125 mM, TA1535 Cells): 1
Negative ([8]; 0.5 mM, TA1535 Cells): 94
Positive ([8]; 0.5 mM, TA1535 Cells): 2
Negative ([8]; 1 mM, TA1535 Cells): 93
Positive ([8]; 1 mM, TA1535 Cells): 3

Reference: US20160025704A1, “METHODS FOR IDENTIFYING NEUROPROTECTIVE PKC ACTIVATORS” (priority 2013, published 2016)
